Data taken from patent US20220304996A1, “REBAMIPIDE FOR USE IN PROPHYLAXIS AND TREATMENT OF CELIAC DISEASE” (SQUARE POWER LTD., priority 2019, published 2022).

How the values were obtained:
Type in all cases: in vivo, human
celiac disease [1] = experiment: Elimination-provocation (gluten challenge) test: duodenal biopsy, villous height to crypt depth ratio; settings: for Vh/Cd (villous height to crypt depth ratio): duodenal biopsy
Source text: (§1) To study the effect of rebamipide on the celiac disease, a gluten challenge test was employed. Adult patients admitted into the test were stabilized on a gluten-free diet (GFD) leading to disappearance of the disease symptoms for at least 12 months. All participants were previously diagnosed by a physician for the celiac disease using upper endoscopy and duodenal biopsy. The gluten-free diet adherence was confirmed by high villous height/crypt depth ratio (Vh/Cd>2-3) and decline in anti-tTG antibody levels (less than 10 U/mL) after the exclusion of gluten from the diet. Patients were divided into two groups taking either rebamipide 100 mg three times a day or placebo just before each major meal. Both groups continued the gluten-free diet. The gluten challenge test was carried out three month (day 90) after the start of the treatment. Patients were given one slice of white bread comprising about 2.7 g of wheat gluten every day for the period of 6 weeks but otherwise maintained their usual gluten-free diet. Both groups continued receiving either rebamipide or placebo treatment. Duodenal biopsy was performed at the beginning (day 0) and at the end (day 132) of the study period. Villous height to crypt depth ratio (Vh/Cd) was determined by measuring the mean height/mean depth of adjacent villi/crypts by a pathologist. The ratio of <2 is regarded as indicative of villous atrophy and crypt hyperplasia.

celiac disease [2] = experiment: Elimination-provocation (gluten challenge) test: Gastrointestinal Symptom Rating Scale (GSRS); settings: for GSRS (mean total score): rebamipide 100 mg three times a day
Source text: To study the effect of rebamipide on the celiac disease, a gluten challenge test was employed. Adult patients admitted into the test were stabilized on a gluten-free diet (GFD) leading to disappearance of the disease symptoms for at least 12 months. All participants were previously diagnosed by a physician for the celiac disease using upper endoscopy and duodenal biopsy. The gluten-free diet adherence was confirmed by high villous height/crypt depth ratio (Vh/Cd>2-3) and decline in anti-tTG antibody levels (less than 10 U/mL) after the exclusion of gluten from the diet.
Patients were divided into two groups taking either rebamipide 100 mg three times a day or placebo just before each major meal. Both groups continued the gluten-free diet. The gluten challenge test was carried out three month (day 90) after the start of the treatment. Patients were given one slice of white bread comprising about 2.7 g of wheat gluten every day for the period of 6 weeks but otherwise maintained their usual gluten-free diet. Both groups continued receiving either rebamipide or placebo treatment.
CD symptoms were weekly evaluated by the Gastrointestinal Symptom Rating Scale (GSRS) questionnaire, an instrument that is widely used in research on celiac disease and other gastrointestinal disorders (Svedlund J, Sjodin I, Dotevall G. GSRS—a clinical rating scale for gastrointestinal symptoms in patients with irritable bowel syndrome and peptic ulcer disease. Dig Dis Sci 1988; 33:129-134). It consists of 15 questions that are grouped into five domains (diarrhea, abdominal pain, indigestion, constipation, and reflux), which are combined into a total score calculated as a mean of all 15 questions. The scoring is based on a Likert scale from 1 to 7 points, where 1 point indicates minimal gastrointestinal symptoms and 7 points the most severe symptoms.

intestinal permeability = experiment: Elimination-provocation (gluten challenge) test: urinary lactulose/mannitol (La/Ma) fractional excretion ratio; settings: for La/Ma (urinary lactulose/mannitol fractional excretion ratio): rebamipide 100 mg three times a day
Source text: To study the effect of rebamipide on the celiac disease, a gluten challenge test was employed. Adult patients admitted into the test were stabilized on a gluten-free diet (GFD) leading to disappearance of the disease symptoms for at least 12 months. All participants were previously diagnosed by a physician for the celiac disease using upper endoscopy and duodenal biopsy. The gluten-free diet adherence was confirmed by high villous height/crypt depth ratio (Vh/Cd>2-3) and decline in anti-tTG antibody levels (less than 10 U/mL) after the exclusion of gluten from the diet. Patients were divided into two groups taking either rebamipide 100 mg three times a day or placebo just before each major meal. Both groups continued the gluten-free diet. The gluten challenge test was carried out three month (day 90) after the start of the treatment. Patients were given one slice of white bread comprising about 2.7 g of wheat gluten every day for the period of 6 weeks but otherwise maintained their usual gluten-free diet. Both groups continued receiving either rebamipide or placebo treatment. The intestinal permeability was measured using the standard urinary lactulose/mannitol (La/Ma) fractional excretion ratio at the beginning of the lest, before and after 6-week challenge. The La/Ma test is based on a different absorption of non-metabolized sugars. In the healthy intestine, monosaccharides (e.g. mannitol) are passively absorbed through the intestinal mucosa, while larger disaccharide molecules (e.g. lactulose) are normally almost not absorbed. On the contrary, patients with the celiac disease have a consistent increase in the absorption of lactulose (via the paracellular route) due to increased permeability of the intestine and a reduction in the absorption of mannitol (via the transcellular route) due to a reduction in surface area as a result of villous atrophy, resulting in an increase in the La/Ma ratio.

anti-tTG IgA antibody = experiment: Elimination-provocation (gluten challenge) test: serum anti-tTG IgA antibody ELISA
Source text: as §1, with “Serum mean anti-tTG IgA antibody levels were” for “Duodenal biopsy was performed at the beginning (day 0) and at the end (day 132) of the study period. Villous height to crypt depth ratio (Vh/Cd) was”, “an enzyme-linked immunosorbent assay (ELISA) and” for “measuring”, “difference at baseline” for “mean height/mean depth of adjacent villi/crypts by a pathologist. The ratio of <2 is regarded as indicative of villous atrophy”, “after 6-week challenge was compared.” for “crypt hyperplasia.”

[3] = day 132, after 6-week gluten challenge, rebamipide 100 mg three times a day

## O=C(NC(Cc1cc(=O)[nH]c2ccccc12)C(=O)O)c1ccc(Cl)cc1 (stereo not drawn) [Rebamipide, 2-[(4-chlorobenzoyl)amino]-3-(2-oxo-1H-quinolin-4-yl)propanoic acid]
Celiac disease [1]; after 6 weeks of daily gluten intake
  change from baseline to post treatment in villus height to crypt depth ratio: didn't exhibit negative changes
Celiac disease [1]; day 0 (baseline)
  Vh/Cd (villous height to crypt depth ratio): 2.9
Celiac disease [1]; [3]
  Vh/Cd (villous height to crypt depth ratio): 3.1
Celiac disease [2]; at the end of the study (day 132)
  difference in mean GSRS scores, rebamipide lower than placebo: 0.6 units
Celiac disease [2]; day 0 (baseline), adult celiac patients on gluten-free diet
  GSRS (mean total score): 2.0
Celiac disease [2]; day 90, after three month pretreatment, before gluten challenge
  GSRS (mean total score): 1.7
Celiac disease [2]; day 132, after 6-week gluten challenge (about 2.7 g wheat gluten every day)
  GSRS (mean total score): 1.8
Intestinal permeability; at the end of the gluten challenge
  La/Ma ratio versus baseline: remained near the baseline
Intestinal permeability; day 0 (baseline)
  La/Ma (urinary lactulose/mannitol fractional excretion ratio): 0.057
Intestinal permeability; day 90, before gluten challenge
  La/Ma (urinary lactulose/mannitol fractional excretion ratio): 0.038
Intestinal permeability; day 132, after 6-week gluten challenge
  La/Ma (urinary lactulose/mannitol fractional excretion ratio): 0.048
anti-tTG IgA antibody; after the gluten challenge
  mean anti-tTG IgA antibody titers: < 10 U/ml
anti-tTG IgA antibody; day 0 (baseline)
  anti-tTG IgA (serum mean antibody level): 3.9 U/ml
anti-tTG IgA antibody; day 90, before gluten challenge, rebamipide 100 mg three times a day
  anti-tTG IgA (serum mean antibody level): 4.3 U/ml
anti-tTG IgA antibody; [3]
  anti-tTG IgA (serum mean antibody level): 7.8 U/ml
